# According to BindingDB's records for patent WO2025049746 (Eikon Therapeutics, 2025):
# Tests used:
# [1] = target: T1, Bifunctional 3'-5' exonuclease/ATP-dependent helicase WRN [480-1251] (UniProt Q14191); experiment: Biochemical Activity Assays
# T1 construct: 480-1251
# Protocol: The pure fractions were pooled and desalted/buffer exchanged into storage buffer using a HiTrap desalting column. […] First, WRN alone was pre-incubated with DMSO or compound of interest for 15 minutes. To initiate the reaction, ATP, dsDNA substrate, and ssDNA competitor (ssDNA_comp: […]) were added and incubated at room temperature for 20 minutes at which point DNA unwinding activity was monitored by measuring Cy3 fluorescence. After obtaining the reading, the ATPase activity was measured using the ADP-Glo Kinase Assay following the manufacturers recommended protocol. […] Compounds were assayed in a 10-point dose response in duplicate at a 1% DMSO final assay concentration.
# [2] = target: Bifunctional 3'-5' exonuclease/ATP-dependent helicase WRN (Homo sapiens, UniProt Q14191); experiment: ADP-Glo Kinase Assay
# Chain of Bifunctional 3'-5' exonuclease/ATP-dependent helicase WRN (Q14191 whole entry): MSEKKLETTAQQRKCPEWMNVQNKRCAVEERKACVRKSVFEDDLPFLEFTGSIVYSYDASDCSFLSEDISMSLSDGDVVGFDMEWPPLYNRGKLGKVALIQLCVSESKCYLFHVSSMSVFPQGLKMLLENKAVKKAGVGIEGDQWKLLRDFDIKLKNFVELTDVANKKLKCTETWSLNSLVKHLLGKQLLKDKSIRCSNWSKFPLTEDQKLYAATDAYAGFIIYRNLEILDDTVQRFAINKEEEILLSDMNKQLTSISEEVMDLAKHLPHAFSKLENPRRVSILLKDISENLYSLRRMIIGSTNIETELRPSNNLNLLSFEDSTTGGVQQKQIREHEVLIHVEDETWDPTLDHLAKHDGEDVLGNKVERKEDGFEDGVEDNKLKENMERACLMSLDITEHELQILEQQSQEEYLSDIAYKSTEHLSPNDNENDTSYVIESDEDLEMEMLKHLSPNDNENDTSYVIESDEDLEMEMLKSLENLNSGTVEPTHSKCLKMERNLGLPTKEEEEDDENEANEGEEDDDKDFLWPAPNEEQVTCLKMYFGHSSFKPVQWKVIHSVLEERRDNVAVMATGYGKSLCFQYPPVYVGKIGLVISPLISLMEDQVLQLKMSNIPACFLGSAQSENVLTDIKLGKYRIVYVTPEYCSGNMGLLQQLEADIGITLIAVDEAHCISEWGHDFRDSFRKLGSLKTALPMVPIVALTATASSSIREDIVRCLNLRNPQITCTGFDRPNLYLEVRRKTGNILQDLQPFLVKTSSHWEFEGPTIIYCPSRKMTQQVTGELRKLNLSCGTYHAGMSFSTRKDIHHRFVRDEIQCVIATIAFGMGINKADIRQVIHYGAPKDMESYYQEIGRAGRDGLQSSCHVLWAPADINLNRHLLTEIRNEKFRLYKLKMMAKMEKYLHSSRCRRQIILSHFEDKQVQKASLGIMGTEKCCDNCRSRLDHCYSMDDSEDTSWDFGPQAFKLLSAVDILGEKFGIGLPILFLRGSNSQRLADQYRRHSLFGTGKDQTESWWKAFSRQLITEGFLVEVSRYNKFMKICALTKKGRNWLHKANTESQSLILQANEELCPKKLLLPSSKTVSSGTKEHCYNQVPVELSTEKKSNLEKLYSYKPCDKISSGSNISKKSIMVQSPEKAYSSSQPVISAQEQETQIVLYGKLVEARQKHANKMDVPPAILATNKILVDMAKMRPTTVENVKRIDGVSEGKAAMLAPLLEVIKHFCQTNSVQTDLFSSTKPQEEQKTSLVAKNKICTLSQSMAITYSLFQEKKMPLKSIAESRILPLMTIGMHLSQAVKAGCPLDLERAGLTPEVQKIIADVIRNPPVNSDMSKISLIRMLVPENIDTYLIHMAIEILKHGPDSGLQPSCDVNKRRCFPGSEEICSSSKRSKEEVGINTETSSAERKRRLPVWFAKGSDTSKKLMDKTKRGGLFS
# Protocol: ATPase activity was measured using the ADP-Glo Kinase Assay following the manufacturers recommended protocol.
# T1 sequence (Q14191 480-1251): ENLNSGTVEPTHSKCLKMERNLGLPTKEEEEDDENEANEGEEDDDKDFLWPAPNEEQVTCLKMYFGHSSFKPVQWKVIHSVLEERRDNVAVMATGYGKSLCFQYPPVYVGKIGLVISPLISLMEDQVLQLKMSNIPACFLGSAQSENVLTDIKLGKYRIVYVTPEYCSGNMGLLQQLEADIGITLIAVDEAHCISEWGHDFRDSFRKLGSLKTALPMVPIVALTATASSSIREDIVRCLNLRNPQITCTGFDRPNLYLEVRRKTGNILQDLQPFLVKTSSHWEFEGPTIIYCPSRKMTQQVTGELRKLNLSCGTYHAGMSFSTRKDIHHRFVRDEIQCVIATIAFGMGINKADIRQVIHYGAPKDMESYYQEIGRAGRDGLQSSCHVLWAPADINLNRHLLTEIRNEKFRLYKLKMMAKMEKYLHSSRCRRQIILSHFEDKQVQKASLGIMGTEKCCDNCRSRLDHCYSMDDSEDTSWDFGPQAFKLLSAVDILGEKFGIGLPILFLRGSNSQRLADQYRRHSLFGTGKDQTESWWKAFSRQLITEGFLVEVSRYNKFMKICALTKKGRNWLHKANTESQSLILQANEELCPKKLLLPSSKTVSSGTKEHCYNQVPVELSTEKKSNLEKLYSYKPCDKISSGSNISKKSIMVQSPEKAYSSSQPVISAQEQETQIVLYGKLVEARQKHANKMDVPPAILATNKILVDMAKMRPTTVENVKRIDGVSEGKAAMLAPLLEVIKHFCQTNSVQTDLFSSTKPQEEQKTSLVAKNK
Structure (SMILES),IC50 [1],IC50 [2]
"CCc1c(N2CCN(C(=O)c3ncnc(C)c3O)CC2)c(=O)n2nc(-c3cc4n(n3)CCOC4)nc2n1CC(=O)Nc1ccc(C(F)(F)F)cc1Cl [WO2025049746, Example 154]",50 nM,69 nM
"CCc1c(N2CCN(C(=O)c3ncnc(C)c3O)CC2)c(=O)n2nc(-c3cccc4c3COC(C)(C)C4)nc2n1CC(=O)Nc1ccc(C(F)(F)F)cc1Cl [WO2025049746, Example 223]",1550 nM,3830 nM
"CCc1c(N2CCN(C(=O)c3ncnc(C)c3O)CC2)c(=O)n2nc(C3=CCOCC3)nc2n1CC(=O)NC12CC(C3CC3)(C1)C2 [WO2025049746, Example 359]",148 nM,232 nM
"CCc1c(N2CCN(C(=O)c3ncnc(C)c3O)CC2)c(=O)n2nc(-c3cc(F)c4nn(C)cc4c3)nc2n1CC(=O)Nc1ccc(C(F)(F)F)cc1Cl [WO2025049746, Example 287]",29 nM,28 nM
"CCc1c(N2CCN(C(=O)c3cc(C)c(O)cc3O)CC2)c(=O)n2nc(-c3ccc4c(c3)COC4)nc2n1CC(=O)Nc1ccc(C(F)(F)F)cc1Cl [WO2025049746, Example 413]",303 nM,386 nM
"CCc1c(N2CCN(C(=O)c3ncnc(C)c3O)CC2)c(=O)n2nc(-c3ccn4c(C)nnc4c3)nc2n1CC(=O)Nc1ccc(C(F)(F)F)cc1Cl [WO2025049746, Example 246]",42 nM,37 nM
"CCc1c(N2CCN(C(=O)c3ncnc(C)c3O)CC2)c(=O)n2nc(C3C4COCC43)nc2n1CC(=O)Nc1ccc(C(F)(F)F)c2c1CC2 (centres undefined) [WO2025049746, Example 382]",2300 nM,2960 nM
"CCc1c(N2CCN(C(=O)c3ncnc(C)c3O)CC2)c(=O)n2nc(-c3ccc4c(c3)CC(F)(F)C4)nc2n1CC(=O)Nc1ccc(C(F)(F)F)cc1Cl [WO2025049746, Example 224]",47 nM,47 nM
"CCc1c(N2CCN(C(=O)C3=CCOCC3)CC2)c(=O)n2nc(-c3ccnc(O)n3)nc2n1CC(=O)Nc1ccc(C(F)(F)F)cc1Cl [WO2025049746, Example 430]",373 nM,550 nM
"CCc1c(N2CCN(C(=O)c3ncnc(C)c3O)CC2)c(=O)n2nc(-c3ccc4c(c3)CCOC4)nc2n1CC(=O)Nc1ccc(Cl)c(OC(F)F)c1Cl [WO2025049746, Example 406]",36 nM,46 nM
"CCc1c(N2CCN(C(=O)c3ncnc(C)c3O)CC2)c(=O)n2nc(-c3cccc4c3OCCO4)nc2n1CC(=O)Nc1ccc(C(F)(F)F)c2c1CC2 [WO2025049746, Example 97]",15.9 nM,19.3 nM
"CCc1c(N2CCN(C(=O)c3ncnc(C)c3O)CC2)c(=O)n2nc(-c3ccc4c(c3)CSC4)nc2n1CC(=O)Nc1ccc(C(F)(F)F)cc1Cl [WO2025049746, Example 257]",30 nM,28 nM
"CCc1c(N2CCN(C(=O)c3ccccc3NS(=O)(=O)C3CC3)CC2)c(=O)n2nc(N(C)C)nc2n1CC(=O)Nc1ccc(C(F)(F)F)cc1Cl [WO2025049746, Example 85]",28.2 nM,35.1 nM
"CCc1c(N2CCN(C(=O)c3ncccc3N=S3(=O)CCC3)CC2)c(=O)n2nc(C3=CCOCC3)nc2n1CC(=O)Nc1ccc(C(F)(F)F)cc1Cl [WO2025049746, Example 37]",56.2 nM,86.3 nM
"CCc1c(N2CCN(C(C)=O)CC2)c(=O)n2nc(-c3ccc4c(c3)OCO4)nc2n1CC(=O)Nc1ccc(C(F)(F)F)cc1Cl [WO2025049746, Example 89]",240 nM,250 nM
"CCc1c(N2CCN(C(=O)c3ncnc(C)c3O)[C@H]3CC[C@H]32)c(=O)n2nc(-c3ccc4c(c3)COC4(C)C)nc2n1CC(=O)Nc1ccc(C(F)(F)F)cc1Cl [WO2025049746, Example 460]",45 nM,52 nM

Structure (SMILES),IC50 [1],IC50 [2]
"CCc1c(N2CCN(C(=O)c3ncnc(C)c3O)CC2)c(=O)n2nc(-c3cc4c(cc3F)C(C)(C)OC4)nc2n1CC(=O)Nc1ccc(C(F)(F)F)cc1Cl [WO2025049746, Example 211]",32 nM,36 nM
"CCc1c(N2CCN(C(=O)c3ncnc(C)c3O)CC2)c(=O)n2nc(-c3ccc4c(c3)CN(C)C4)nc2n1CC(=O)Nc1ccc(C(F)(F)F)cc1Cl [WO2025049746, Example 197]",52 nM,50 nM
"CCc1c(N2CCN(C(=O)c3ncnc(C)c3O)CC2)c(=O)n2nc(-c3ccc4c(c3)CO[C@H]4C(F)(F)F)nc2n1CC(=O)Nc1ccc(C(F)(F)F)cc1Cl [WO2025049746, Example 274]",554 nM,493 nM
"CCc1c(N2CCN(C(=O)c3ccccc3NS(=O)(=O)C3CC3)CC2)c(=O)n2nc(C3=CCOCC3)nc2n1CC(=O)Nc1ccc(C(F)(F)F)cc1Cl [WO2025049746, Example 39]",33 nM,45.7 nM
"CCc1c(N2CCN(C(=O)c3cccc[n+]3[O-])CC2)c(=O)n2nc(C3=CCOCC3)nc2n1CC(=O)Nc1ccc(C(F)(F)F)cc1Cl [WO2025049746, Example 35]",68.4 nM,130 nM
"CCc1c(N2CCN(C(=O)C(C)O)CC2)c(=O)n2nc(C3=CCOCC3)nc2n1CC(=O)Nc1ccc(C(F)(F)F)cc1Cl (centres undefined) [WO2025049746, Example 54]",46.1 nM,182 nM
"CCc1c(N2CCN(C(=O)c3ncnc(C)c3O)CC2)c(=O)n2nc(-c3ccc([S+](C)[O-])cc3)nc2n1CC(=O)Nc1ccc(C(F)(F)F)cc1Cl (centres undefined) [WO2025049746, Example 333]",28 nM,28 nM
"CCc1c(N2CCN(C(=O)c3ncnc(C)c3O)CC2)c(=O)n2nc(C3=CCOCC3)nc2n1CC(=O)NC12CC(C(F)(F)C(F)(F)F)(C1)C2 [WO2025049746, Example 69]",141 nM,235 nM
"CCc1c(N2CCN(C(=O)c3nccc4nc[nH]c34)CC2)c(=O)n2nc(-c3ccc4c(c3)OCO4)nc2n1CC(=O)Nc1ccc(C(F)(F)F)cc1Cl [WO2025049746, Example 88]",28.9 nM,48.8 nM
"CCc1c(N2CCN(C(=O)c3ncnc(C)c3O)CC2)c(=O)n2nc(-c3ccc4c(c3)CC(C)(C)O4)nc2n1CC(=O)Nc1ccc(C(F)(F)F)cc1Cl [WO2025049746, Example 194]",67 nM,81 nM
"CCc1c(N2CCN(C(=O)c3ncnc(C)c3O)[C@H]3CC[C@@H]32)c(=O)n2nc(-c3ccc4c(c3)COC4(C)C)nc2n1CC(=O)Nc1ccc(C(F)(F)F)cc1Cl [WO2025049746, Example 458]",93 nM,90 nM
"CCc1c(N2CCN(C(=O)c3ncnc(C)c3O)CC2)c(=O)n2nc(-c3ccc4c(c3)CCOC4)nc2n1CC(=O)Nc1ccc(SC(F)(F)F)cc1Cl [WO2025049746, Example 395]",35 nM,43 nM
"CCc1c(N2CCN(C(=O)CO)CC2)c(=O)n2nc(C3=CCOCC3)nc2n1CC(=O)Nc1ccc(C(F)(F)F)cc1Cl [WO2025049746, Example 53]",254 nM,440 nM
"CCc1c(N2CCN(C(=O)c3ncnc(C)c3O)CC2)c(=O)n2nc(-c3ccc4nc(N5CCOCC5)oc4c3)nc2n1CC(=O)Nc1ccc(C(F)(F)F)cc1Cl [WO2025049746, Example 315]",33 nM,34 nM
"CCc1c(N2CCN(C(=O)C(C)n3cncn3)CC2)c(=O)n2nc(C3=CCOCC3)nc2n1CC(=O)Nc1ccc(C(F)(F)F)cc1Cl (centres undefined) [WO2025049746, Example 62]",133 nM,413 nM
"CCc1c(N2CCN(C(=O)c3ncnc(C)c3O)CC2)c(=O)n2nc(N3CCC3)nc2n1CC(=O)Nc1ccc(C(F)(F)F)cc1Cl [WO2025049746, Example 28]",60.3 nM,90.9 nM
